Among the data in US9718804B2, “GSK-3 inhibitors” (BRISTOL-MYERS SQUIBB COMPANY, priority 2013, dated 2017) are IC50 values, retold here.

The target in one assay is GSK3β (Homo sapiens, UniProt P49841). The assay can be described thus: GSK3β kinase assay (Caliper LabChip, fluoresceinated peptide substrate). It is filed as biochemical. In short, it runs like this:
(§1)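 Readout: electrophoretic resolution of phosphorylated from unphosphorylated peptide on a LabChip3000. Reactions incubated 20 h at room temperature before termination with 35 mM EDTA. Eleven-concentration curves gave IC50 via non-linear regression.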

In the next assay the test system is pTau. Nature of the assay: pTau assay (no method described). It is filed as cell-based.
Another assay addresses GSK3α (Homo sapiens, UniProt P49840). Nature of the assay: GSK3α kinase assay (Caliper LabChip, fluoresceinated peptide substrate). It is filed as biochemical. In short, it runs like this: as §1
Setting [1] is: first value of the cell, 250 pM enzyme, 20 uM ATP, 20 hours at room temperature, read-out: GSK3β/α (nM): GSK3β IC50.
Setting [2] is: second value of the cell, 250 pM enzyme, 20 uM ATP, 20 hours at room temperature, read-out: GSK3β/α (nM): GSK3α IC50.

Where two headings read alike, the source gives them in different places.

Chain of GSK3α (P49840 whole entry, species assumed): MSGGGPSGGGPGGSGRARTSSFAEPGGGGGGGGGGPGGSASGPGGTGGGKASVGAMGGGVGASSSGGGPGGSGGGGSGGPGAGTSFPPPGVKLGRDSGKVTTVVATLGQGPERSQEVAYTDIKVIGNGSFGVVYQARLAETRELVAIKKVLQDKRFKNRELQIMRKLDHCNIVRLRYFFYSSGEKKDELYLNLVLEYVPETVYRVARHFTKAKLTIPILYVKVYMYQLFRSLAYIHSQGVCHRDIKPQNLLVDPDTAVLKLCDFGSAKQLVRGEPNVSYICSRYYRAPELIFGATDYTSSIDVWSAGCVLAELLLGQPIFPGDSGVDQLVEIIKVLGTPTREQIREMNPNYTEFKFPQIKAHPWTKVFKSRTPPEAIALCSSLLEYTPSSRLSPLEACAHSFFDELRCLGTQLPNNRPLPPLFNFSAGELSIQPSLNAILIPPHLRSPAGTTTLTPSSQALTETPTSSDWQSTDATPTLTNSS
Chain of GSK3β (P49841 whole entry, species assumed): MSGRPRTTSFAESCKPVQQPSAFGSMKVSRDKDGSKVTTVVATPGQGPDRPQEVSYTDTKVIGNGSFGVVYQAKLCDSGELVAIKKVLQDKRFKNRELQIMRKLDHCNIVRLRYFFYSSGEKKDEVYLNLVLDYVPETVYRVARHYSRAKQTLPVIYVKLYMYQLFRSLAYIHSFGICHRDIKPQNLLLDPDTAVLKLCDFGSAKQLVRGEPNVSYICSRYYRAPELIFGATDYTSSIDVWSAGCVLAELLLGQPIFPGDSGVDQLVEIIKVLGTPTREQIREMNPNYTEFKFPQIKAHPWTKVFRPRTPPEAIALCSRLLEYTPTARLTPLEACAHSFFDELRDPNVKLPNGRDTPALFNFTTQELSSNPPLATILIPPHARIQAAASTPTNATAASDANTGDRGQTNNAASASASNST

For `O=C(Nc1cnccc1[S+]([O-])c1ccccc1)c1ccnc(Nc2ccc(C(F)(F)F)cn2)c1` (stereo not drawn) [Example 177, N-(4-(Phenylsulfinyl)pyridin-3-yl)-2-((5-(trifluoromethyl)pyridin-2-yl)amino)isonicotinamide], the results for the IC50 on GSK3β (setting [1]), with pTau and at GSK3α were 3.9 nM, 760 nM and 1.1 nM, respectively.

For `CC(C)(C)[S+]([O-])c1ccncc1NC(=O)c1ccnc(Nc2ccc(C(F)(F)F)cn2)c1` (stereo not drawn) [Example 178, N-(4-(tert-Butylsulfinyl)pyridin-3-yl)-2-((5-(trifluoromethyl)pyridin-2-yl)amino)isonicotinamide], the IC50 was found to be 0.12 nM on GSK3β (setting [1]), 13 nM in the assay with pTau and 1.2 nM at GSK3α.

Regarding `O=C(Nc1cnc(Cl)cc1[S+]([O-])C1CC1)c1ccnc(Nc2ccc(C(F)(F)F)cn2)c1` (stereo not drawn) [Example 180, N-(6-Chloro-4-(cyclopropylsulfinyl)pyridin-3-yl)-2-((5-(trifluoromethyl)pyridin-2-yl)amino)isonicotinamide], the IC50 at GSK3β (setting [1]) was 15 nM; with pTau, 790 nM; against GSK3α, 7.6 nM.

With `CCCS(=O)(=O)c1ccncc1NC(=O)c1ccnc(Nc2ccc(C(F)(F)F)cn2)c1` [Example 182, N-(4-(Propylsulfonyl)pyridin-3-yl)-2-((5-(trifluoromethyl)pyridin-2-yl)amino)isonicotinamide], the IC50 at GSK3β (setting [1]) was 5.2 nM; in the assay on pTau it was 15 nM; on GSK3α, 2.1 nM.

For `O=C(Nc1cnccc1S(=O)(=O)c1ccccc1)c1ccnc(Nc2ccc(C(F)(F)F)cn2)c1` [Example 183, N-(4-(Phenylsulfonyl)pyridin-3-yl)-2-((5-(trifluoromethyl)pyridin-2-yl)amino)isonicotinamide], the IC50 is 2.2 nM on GSK3β (setting [1]), 200 nM in the assay on pTau and 0.75 nM on GSK3α.

`O=C(Nc1cnccc1S(=O)(=O)CC(F)(F)F)c1ccnc(Nc2ccc(C(F)(F)F)cn2)c1` [Example 184, N-(4-((2,2,2-Trifluoroethyl)sulfonyl)pyridin-3-yl)-2-((5-(trifluoromethyl)pyridin-2-yl)amino)isonicotinamide]: the IC50 at GSK3β (setting [1]) came to 120 nM; in the assay on pTau, 130 nM; on GSK3α, 4.8 nM.

`CC(C)CS(=O)(=O)c1ccncc1NC(=O)c1ccnc(Nc2ccc(C(F)(F)F)cn2)c1` [Example 185, N-(4-(Isobutylsulfonyl)pyridin-3-yl)-2-((5-(trifluoromethyl)pyridin-2-yl)amino)isonicotinamide]: the IC50 at GSK3β worked out at 0.51 nM; in the assay on pTau, 49 nM; on GSK3α (setting [2]) it was 4.8 nM.

As to `CC(C)S(=O)(=O)c1ccncc1NC(=O)c1ccnc(Nc2ccc(C(F)(F)F)cn2)c1` [Example 186, N-(4-(Isopropylsulfonyl)pyridin-3-yl)-2-((5-(trifluoromethyl)pyridin-2-yl)amino)isonicotinamide], the values for the IC50 against GSK3β, with pTau and at GSK3α (setting [2]) were 1.2 nM, 2 nM and 0.04 nM, respectively.

As to `CC(C)(C)S(=O)(=O)c1ccncc1NC(=O)c1ccnc(Nc2ccc(C(F)(F)F)cn2)c1` [Example 187, N-(4-(tert-butylsulfonyl)pyridin-3-yl)-2-((5-(trifluoromethyl)pyridin-2-yl)amino)isonicotinamide], the figures for the IC50 at GSK3β (setting [1]), with pTau and on GSK3α were 0.4 nM, 1.1 nM and 0.07 nM, respectively.

In the case of `O=C(Nc1cnc(Cl)cc1S(=O)(=O)C1CC1)c1ccnc(Nc2ccc(C(F)(F)F)cn2)c1` [Example 188, N-(6-Chloro-4-(cyclopropylsulfonyl)pyridin-3-yl)-2-((5-(trifluoromethyl)pyridin-2-yl)amino)isonicotinamide], the IC50 came out at 5 nM on GSK3β (setting [1]), 150 nM with pTau and 3.3 nM against GSK3α.

Regarding `O=C(Nc1cnccn1)c1ccnc(Nc2ccc(C(F)(F)F)cn2)c1` [Example 189, N-(Pyrazin-2-yl)-2-((5-(trifluoromethyl)pyridin-2-yl)amino)isonicotinamide], the IC50 on GSK3β (setting [1]) is 11 nM; in the assay with pTau, 1030 nM; against GSK3α, 4.3 nM.

Turning to `O=C(Nc1cncc(-c2ccccc2F)n1)c1ccnc(Nc2ccc(C(F)(F)F)cn2)c1` [Example 190, N-(6-(2-Fluorophenyl)pyrazin-2-yl)-2-((5-(trifluoromethyl)pyridin-2-yl)amino)isonicotinamide], the IC50 at GSK3β (setting [1]) was found to be 68 nM; in the assay with pTau it was 10000 nM; against GSK3α, 29 nM.

Consider `O=C(Nc1cncnc1)c1ccnc(Nc2ccc(C(F)(F)F)cn2)c1` [Example 191, N-(Pyrimidin-5-yl)-2-((5-(trifluoromethyl)pyridin-2-yl)amino)isonicotinamide], for which the IC50 at GSK3β (setting [1]) turned out to be 17 nM; with pTau, 1600 nM; against GSK3α, 9 nM.

In the case of `O=C(Nc1cncnc1Br)c1ccnc(Nc2ccc(C(F)(F)F)cn2)c1` [Example 192, N-(4-Bromopyrimidin-5-yl)-2-((5-(trifluoromethyl)pyridin-2-yl)amino)isonicotinamide], the figures for the IC50 on GSK3β (setting [1]), with pTau and against GSK3α were 23 nM, 520 nM and 9.3 nM, respectively.

Regarding `O=C(Nc1cncnc1-c1ccccc1)c1ccnc(Nc2ccc(C(F)(F)F)cn2)c1` [Example 193, N-(4-Phenylpyrimidin-5-yl)-2-((5-(trifluoromethyl)pyridin-2-yl)amino)isonicotinamide], the IC50 on GSK3β (setting [1]) was 3.6 nM; in the assay with pTau, 165 nM; against GSK3α, 1.9 nM.

`O=C(Nc1cncnc1OCC(F)(F)F)c1ccnc(Nc2ccc(C(F)(F)F)cn2)c1` [Example 194, N-(4-(2,2,2-Trifluoroethoxy)pyrimidin-5-yl)-2-((5-(trifluoromethyl)pyridin-2-yl)amino)isonicotinamide]: the IC50 came out at 3.2 nM at GSK3β (setting [1]), 140 nM with pTau and 1.6 nM on GSK3α.

As to `O=C(Nc1cncnc1N1CCOCC1)c1ccnc(Nc2ccc(C(F)(F)F)cn2)c1` [Example 195, N-(4-Morpholinopyrimidin-5-yl)-2-((5-(trifluoromethyl)pyridin-2-yl)amino)isonicotinamide], the results for the IC50 on GSK3β (setting [1]), in the assay with pTau and against GSK3α were 17 nM, 710 nM and 7.9 nM, respectively.

On to `O=C(Nc1ccnnc1)c1ccnc(Nc2ccc(C(F)(F)F)cn2)c1` [Example 196, N-(Pyridazin-4-yl)-2-((5-(trifluoromethyl)pyridin-2-yl)amino)isonicotinamide], for which the IC50 on GSK3β (setting [1]) is 80 nM; in the assay with pTau it was 7400 nM; against GSK3α, 25 nM.

Consider `O=C(Nc1cnncc1Br)c1ccnc(Nc2ccc(C(F)(F)F)cn2)c1` [Example 197, N-(5-Bromopyridazin-4-yl)-2-((5-(trifluoromethyl)pyridin-2-yl)amino)isonicotinamide], for which the values for the IC50 at GSK3β (setting [1]), in the assay on pTau and at GSK3α were 70 nM, 3500 nM and 22 nM, respectively.

`O=C(Nc1cnncc1-c1ccccc1)c1ccnc(Nc2ccc(C(F)(F)F)cn2)c1` [Example 198, N-(5-Phenylpyridazin-4-yl)-2-((5-(trifluoromethyl)pyridin-2-yl)amino)isonicotinamide]: the IC50 at GSK3β (setting [1]) turned out to be 6.7 nM; with pTau, 180 nM; against GSK3α, 2.9 nM.

Take `CC1(c2cnncc2NC(=O)c2ccnc(Nc3ccc(C(F)(F)F)cn3)c2)OCCO1` [Example 200, N-(5-(2-Methyl-1,3-dioxolan-2-yl)pyridazin-4-yl)-2-((5-(trifluoromethyl)pyridin-2-yl)amino)isonicotinamide]: the IC50 was found to be 0.62 nM on GSK3β (setting [1]), 3.2 nM in the assay with pTau and 0.39 nM against GSK3α.

Consider `O=C(Nc1cnncc1C1(CCCCl)OCCO1)c1ccnc(Nc2ccc(C(F)(F)F)cn2)c1` [Example 201, N-(5-(2-(3-Chloropropyl)-1,3-dioxolan-2-yl)pyridazin-4-yl)-2-((5-(trifluoromethyl)pyridin-2-yl)amino)isonicotinamide], for which the results for the IC50 on GSK3β (setting [1]), with pTau and on GSK3α were 0.19 nM, 28 nM and 0.4 nM, respectively.

Regarding `CC(O)(c1cnncc1NC(=O)c1ccnc(Nc2ccc(C(F)(F)F)cn2)c1)C1CC1` (stereo not drawn) [Example 203, N-(5-(1-Cyclopropyl-1-hydroxyethyl)pyridazin-4-yl)-2-((5-(trifluoromethyl)pyridin-2-yl)amino)isonicotinamide], the IC50 on GSK3β (setting [1]) turned out to be 1.2 nM; with pTau it was 10000 nM; at GSK3α, 0.94 nM.

Turning to `O=C(Nc1cnsc1-c1ccccc1)c1ccnc(Nc2ccc(C(F)(F)F)cn2)c1` [Example 204, N-(5-Phenylisothiazol-4-yl)-2-((5-(trifluoromethyl)pyridin-2-yl)amino)isonicotinamide], the IC50 at GSK3β (setting [1]) stood at 3 nM; with pTau, 300 nM; on GSK3α it was 1.7 nM.

Regarding `O=C(Nc1cn[nH]c1-c1ccccc1)c1ccnc(Nc2ccc(C(F)(F)F)cn2)c1` [Example 205, N-(5-Phenyl-1H-pyrazol-4-yl)-2-((5-(trifluoromethyl)pyridin-2-yl)amino)isonicotinamide], the IC50 on GSK3β (setting [1]) came out at 28 nM; with pTau, 10000 nM; at GSK3α, 20 nM.

With `CC(=O)c1c(NC(=O)c2ccnc(Nc3ccc(C(F)(F)F)cn3)c2)cnn1C` [Example 206, N-(5-Acetyl-1-methyl-1H-pyrazol-4-yl)-2-((5-(trifluoromethyl)pyridin-2-yl)amino)isonicotinamide], the IC50 worked out at 3.1 nM at GSK3β (setting [1]), 400 nM in the assay on pTau and 2.7 nM on GSK3α.

`Cn1ncc(NC(=O)c2ccnc(Nc3ccc(C(F)(F)F)cn3)c2)c1C1(C)OCCO1` [Example 207, N-(1-Methyl-5-(2-methyl-1,3-dioxolan-2-yl)-1H-pyrazol-4-yl)-2-((5-(trifluoromethyl)pyridin-2-yl)amino)isonicotinamide]: the IC50 came out at 0.09 nM on GSK3β (setting [1]), 1.4 nM in the assay on pTau and 0.1 nM at GSK3α.
